Results as given in PMC10455244, “Alpha-Mangostin: A Potent Inhibitor of TRPV3 and Pro-Inflammatory Cytokine Secretion in Keratinocytes” (International Journal of Molecular Sciences, 2023).

Target: T1, TRPV3 (G573C) (Homo sapiens, UniProt Q8NET8, G573C)
T1 construct: host or cells: HEK 293T (transient transfection, pEGFP-N1 co-transfected as a marker)
T1 sequence (Q8NET8 1-790 G573C): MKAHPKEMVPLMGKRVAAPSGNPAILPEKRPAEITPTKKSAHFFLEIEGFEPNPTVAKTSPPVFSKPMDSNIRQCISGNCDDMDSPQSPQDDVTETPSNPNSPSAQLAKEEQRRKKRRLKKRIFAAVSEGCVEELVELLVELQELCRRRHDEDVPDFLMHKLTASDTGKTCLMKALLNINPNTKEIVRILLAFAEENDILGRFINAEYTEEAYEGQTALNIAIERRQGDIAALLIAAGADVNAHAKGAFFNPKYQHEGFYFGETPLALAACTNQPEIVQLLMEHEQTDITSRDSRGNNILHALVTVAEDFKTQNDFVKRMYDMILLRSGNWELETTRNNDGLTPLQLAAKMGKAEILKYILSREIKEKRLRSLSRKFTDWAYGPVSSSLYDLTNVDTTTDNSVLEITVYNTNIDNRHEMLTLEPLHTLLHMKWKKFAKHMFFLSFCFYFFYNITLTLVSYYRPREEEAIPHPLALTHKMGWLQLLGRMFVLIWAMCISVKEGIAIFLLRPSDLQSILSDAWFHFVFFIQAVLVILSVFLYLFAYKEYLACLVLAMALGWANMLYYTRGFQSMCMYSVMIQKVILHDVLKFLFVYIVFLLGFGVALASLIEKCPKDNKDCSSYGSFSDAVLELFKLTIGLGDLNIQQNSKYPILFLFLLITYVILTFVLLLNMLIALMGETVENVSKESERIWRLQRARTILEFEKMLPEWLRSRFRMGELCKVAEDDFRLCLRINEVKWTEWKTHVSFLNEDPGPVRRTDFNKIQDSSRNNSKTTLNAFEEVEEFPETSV
Experiment: Fura-2 calcium imaging, spontaneous Ca2+ increase in TRPV3 (G573C)-expressing HEK 293T cells
Type: cell-based
Conditions: 1 µM
Description: Figure 4 Alpha-mangostin inhibited the activity of hyperactive TRPV3 mutant channels and rescued mutation-induced cell death. (A) Alpha-mangostin inhibited the channel current in representative TRPV3 (G573S)- and TRPV3 (G573C)-expressing HEK 293T cells. […] Currents were normalized to the response at −100 mV before adding alpha-mangostin. (C) Alpha-mangostin inhibited TRPV3-mediated intracellular calcium increase in TRPV3 (G573S)-expressing HEK 293T cells. […] The bar graph on the right summarizes the change in the intracellular calcium rise inhibited by alpha-mangostin. […]
Subsequently, the effects of alpha-mangostin on the activities of the mutated channels were further evaluated using intracellular calcium measurements.
Fura-2 AM (Thermo Fisher Scientific) was utilized as a fluorescent indicator to measure calcium signal, as described previously. […] To measure the cytosolic Ca^2+ level, a sequential excitation of Fura-2 is performed at 340 nm and 380 nm; then, the emission signals resulting from each excitation wavelength are measured and the ratio of these signals is calculated. […] Samples were excited using a wavelength of 380 nm for 20 ms, followed by 340 nm for 100 ms, and fluorescence at 510 nm was recorded. Recorded data were then analyzed using NIS-Element AR Version 5.00.00 (Nikon Instruments, Melville, NY, USA). […]

## COc1c(O)cc2oc3cc(O)c(CC=C(C)C)c(O)c3c(=O)c2c1CC=C(C)C [Alpha-mangostin]
  Effect on spontaneous intracellular calcium increase: potently attenuated
